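1) Cells in 96-well plates. 2) Compound, 48 h, 5 concentrations. 3) Linear interpolation between surrounding doses. 4) Unreached endpoint = highest concentration. The concentration for full growth arrest is given as TGI.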 *1 amine or outer side, *2 acyl side, *3 side chain or, on linkers, in order; H or OH if unused. Where a SMILES comes first, the peptide text is derived from it. Bridges are numbered along the chain shown (N, C = ends). Roman numbers before positions name the chains, in order. [ ]: non-standard residue; d: D form. Actinocin(9to1) = Cc1c2oc3c(C)ccc(C(=O)[*:1])c3nc-2c(C(=O)[*:2])c(N)c1=O; NMeV = CN[CH](C(=O)O)C(C)C; Sar = CNCC(=O)O
Experiments:
Experiment in all cases: growth of human tumour cells (NCI), 48 h
[1] = test system: HOP-62 NSCLC
[2] = test system: SK-OV-3 ovarian
[3] = test system: LOX IMVI melanoma
[4] = test system: SK-MEL-28 melanoma
[5] = test system: RPMI-8226 leukemia
[6] = test system: SNB-75 CNS
[7] = test system: HT29 colon
[8] = test system: SR leukemia
[9] = test system: HCT-15 colon
[10] = test system: MDA-MB-435

Row | Compound | TGI [1] [µM] | TGI [2] [µM] | TGI [3] [µM] | TGI [4] [µM] | TGI [5] [µM] | TGI [6] [µM] | TGI [7] [µM] | TGI [8] [µM] | TGI [9] [µM] | TGI [10] [µM]
1 | CC(=O)CCCCCCCCCCCC[C@@H]1CC[C@H](C)[C@H](O)N1 | > 100 | > 100 | > 100 | > 100 | > 100 | > 100 | > 100 | > 100 | > 100 | 
2 | Cc1c2oc3c(C)ccc(C(=O)NC4C(=O)NC(Cc5ccc(O)cc5)C(=O)N5CCCC5C(=O)N(C)CC(=O)N(C)C(C(C)C)C(=O)OC4C)c3nc-2c(C(=O)NC2C(=O)NC(Cc3ccc(O)cc3)C(=O)N3CCCC3C(=O)N(C)CC(=O)N(C)C(C(C)C)C(=O)OC2C)c(N)c1=O (centres undefined) (I: TYP[Sar][NMeV] / II: TYP[Sar][NMeV]; ester I:1-I:C, II:1-II:C; linker I:N-II:N via Actinocin(9to1); configuration not given here) | > 52.2 | > 100 | 19.9 | > 87 | > 100 | 20.3 | > 100 |  | > 100 | > 100
3 | Cn1c(O)c(/C=N/c2ncccn2)c(=O)[nH]c1=O | > 100 | > 100 | > 100 | > 100 |  | > 100 | > 100 |  | > 100 | > 100
4 | CC(C)(C)C(=O)O[C@H]1C=C[C@@H](O)[C@@H]2[C@H]1[C@@H]1C=C[C@H]2C1 |  | > 100 | > 100 | 59.2 | 83 | > 100 |  | > 100 | 83.5 | 
5 | CC(C)NCCNC(=O)c1ccccc1Nc1c(Cl)cccc1Cl | 25.4 | 28 | 20.6 | 28.1 | 16.2 | 16.3 | 17.5 | 26.8 | 26.5 | 
6 | O=C(NCCNCCO)N/N=C/c1ccccc1 |  | > 100 | > 100 | > 100 |  | > 100 | > 100 |  | > 100 | 
7 | C/C=C\C(CC(=O)NCCc1c[nH]c2ccccc12)CC(=O)OC (centres undefined) | > 100 | > 100 |  | > 100 | > 100 | > 100 | > 100 |  | > 100 | > 100
8 | COc1cccc(OC/C(N=Cc2ccncc2)=N/NC(=O)c2ccncc2)c1 | > 100 | > 100 | > 100 | > 100 | > 100 |  | > 100 |  | > 100 | > 100
9 | O=c1n(C2CCCCC2)c(=C(Cl)Cl)c(=C(Cl)Cl)n1C1CCCCC1 | > 100 | > 100 | > 100 | > 100 | > 100 | > 100 | > 100 | > 100 | > 100 | 
10 | C/C(=C\COP(=O)(O)OP(=O)(O)O)CC/C=C(\C)CNc1ccccc1 | > 50 | > 50 | > 50 | > 50 | 0.0403 | > 50 | > 50 |  | > 50 | > 50
11 | CCCCCCCCCCC[N+]1(Cc2ccccc2)CC2CCN(Cc3ccccc3)CC2C1 (centres undefined) | 2.14 | 3.13 | 1.6 | 1.95 | 0.378 | 2.45 | 1.71 | 1.07 | 2.96 | 
12 | CCOC(=O)NC(OCc1ccccc1)(C(=O)OC)C(F)(F)F (centres undefined) |  | > 100 | > 100 | > 100 | > 100 |  | > 100 | > 100 | > 100 | > 100
13 | S=c1oc(CCCCCCCCc2nn(CNc3ccc(Cl)cc3)c(=S)o2)nn1CNc1ccc(Cl)cc1 | 76.1 | > 100 |  | > 100 | > 100 | > 100 | > 100 |  | > 100 | > 100
14 | O=C1/C(=C/C=C/c2ccccc2)CCC1CNc1ccc(Br)cc1 (centres undefined) | > 100 | > 100 | > 100 | > 100 |  |  | > 100 | > 100 | > 100 | > 100
15 | c1ccc2c(c1)ccc1nc(-c3ccc4c(c3)OCO4)c3c(c12)CCC3 | > 100 | > 100 |  | > 100 | > 100 | > 100 | > 100 |  | > 100 | > 100
16 | O=C1C(Cl)C(c2cccc(O)c2)N1n1cnc2ccccc2c1=O (centres undefined) | > 100 | > 100 | > 100 | > 100 | > 100 | > 100 | > 100 | > 100 | > 100 | 
17 | NNc1nnc(-c2ccccc2)nc1Cc1ccccc1 | 9.45 | > 100 | 30.5 | > 100 |  |  | > 100 | > 100 | > 100 | 
